From PubChem BioAssay (NCI) come the findings set out here.

Molecules are shown by their SMILES. Values joined by “and” are separate entries in the source; they are usually repeats but may differ in a detail not shown here. Equal values may be shown once.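 How tested: cells in 96-well plates exposed to compound for 48 hours at five concentrations. GI50 marks 50% less growth. TGI is the concentration that stops growth completely.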

What all share (experiment): NCI tumour cell line growth inhibition, 48 h
Test [1] deals with A549 NSCLC.
For test [2], the system named is CCRF-CEM leukemia.
In test [3] the test system is MCF7 breast.
The test system of test [4] is OVCAR-4 ovarian.
For test [5], the system named is SF-295 CNS.
The subject of test [6] is SK-OV-3 ovarian.
The subject of test [7] is SN12C renal.
Test [8] relates to U251 CNS.
Test [9] concerns UO-31 renal.

Regarding `CCSCC1CC(O)(c2ccccc2)C(c2ccccc2)C(c2ccc(Cl)cc2)O1` (configuration not stated), the GI50 in test [1] was 1.61 µM; in test [2], 2.03 µM; in test [3], 1.85 µM; in test [4], 1.66 µM; in test [5], 1.56 µM; in [6], 2.5 µM. The GI50 in test [7] is 1.52 µM; in test [8], 1.63 µM; in test [9], 1.07 µM. Also, the TGI was found to be 3.63 µM in test [1]; 6.5 µM in test [2]; 5.35 µM in test [3]; 4.35 µM in test [4]; 3.73 µM in test [5]; 7.33 µM in test [6]. The TGI in test [7] was determined as 3.13 µM; in test [8], 3.32 µM; in [9], 2.43 µM.
Consider `CC[C@]1(O)CC(OC2CC(N(C)C)C(O)C(C)O2)c2c(cc3c(c2O)C(=O)c2c(O)cccc2C3=O)[C@@H]1C(=O)OC` (some centres not stated), for which the TGI in test [1] is 6.59 µM; in test [2], 3.39 µM; in test [3], 6.17 µM; in test [4] it was 1.49 µM; in test [5] it was 3.31 µM; in [6], 2.18 µM. Further, the TGI in [7] was 6.85 µM; in test [8] it was 5.57 µM; in test [9], 0.635 µM.
Regarding `Cc1c(N2CCCC2)cc2c(c1NC(=O)c1ccccc1Cl)C(C)(C)CC2(C)C`, the TGI in [1] was 27.6 µM; in test [3] it was 28.4 µM; in test [4] it was 33.3 µM; in test [5], 26.8 µM; in test [6], 27.2 µM; in test [7], 33.2 µM. For the same molecule, the TGI worked out at 27.6 µM in test [8] and 26.4 µM in test [9].
Regarding `Cc1ccc(S(=O)(=O)OC2CCN(C)CC2)cc1`, the TGI in [1], in [3], in test [4], in [5], in test [6] and in test [7] was > 100 µM throughout. Further, the TGI in test [8] was > 100 µM.
With `CC(C)[C@]12O[C@H]1[C@@H]1O[C@]13[C@]1(O[C@H]1C[C@H]1C4=C(CC[C@@]13C)C(=O)OC4)[C@@H]2O`, the GI50 was 0.0276 µM and 0.0246 µM in test [1]; 0.0255 µM in test [2]; < 0.01 µM in test [3]; 0.0174 µM in [4]; 0.0379 µM in [8]; 0.0183 µM in [9]. Besides, the TGI in test [1] was > 100 µM; in test [2], 0.297 µM; in test [5], 0.646 µM and 0.934 µM; in [6], > 100 µM; in test [8], > 100 µM; in [9], > 100 µM.
Consider `OC(c1cccc(-n2ccc(C(F)(F)F)n2)c1)c1cnccc1NC1CCCCCC1` (configuration not stated), for which the GI50 in test [1] was 1.81 µM; in [2], 2.35 µM; in test [3], 1.53 µM; in [4] it was 1.64 µM; in [5], 1.79 µM; in test [7], 1.69 µM. In addition, the results for the GI50 in test [8] and in test [9] were 1.66 µM and 1.37 µM, respectively. Further, the TGI in test [1] was 3.56 µM; in test [2], 6.04 µM; in test [3] it was 3.11 µM; in test [4], 3.07 µM; in [5], 3.2 µM; in [7], 3.2 µM. Besides, the TGI is 3.24 µM in [8] and 2.7 µM in [9].
As to `CN(Cc1cnc2nc(N)nc(N)c2n1)c1ccc(C(=O)NC(CCC(=O)O)C(=O)O)cc1C(F)(F)F` (configuration not stated), the TGI in [1] was > 100 µM; in test [2], 0.486 µM; in [3], > 100 µM; in test [4], > 100 µM; in test [5], > 100 µM; in test [6], > 100 µM. The TGI in test [8] and in [9] was > 100 µM in each case.
Regarding `N=C(N)c1ccc(OCc2cccc(COc3ccc(C(=N)N)cc3)c2)cc1`, the GI50 in [1] is 19.3 µM; in [3] it was 4.5 µM; in [4], 14.1 µM; in test [5], 2.82 µM; in test [6] it was 18.4 µM; in test [7] it was 2.68 µM. Moreover, the GI50 in test [8] is 3.73 µM; in [9], 42.1 µM. Further, the TGI is > 100 µM in test [1]; 14.9 µM in test [3]; 99.6 µM in [4]; 9.35 µM in test [5]; 50.9 µM in test [6]; 13.1 µM in test [7]. The TGI was 17.2 µM in test [8] and > 100 µM in [9].
With `CCCCCCCCCCCCNC(C)=O`, the TGI in [1] was > 100 µM; in test [2], 32.7 µM; in test [3], 32.4 µM; in test [5], 34.4 µM; in test [6], 29.1 µM; in test [7] it was 37 µM. Also, the figures for the TGI in [8] and in [9] were 30.1 µM and 46.9 µM, respectively.
Consider `Cc1nc(-c2cccc(Nc3nc(-c4ccc(Cl)cc4)cs3)c2)cs1`, for which the GI50 was 8.9 µM in test [1]; 14.7 µM in test [3]; 10.6 µM in test [5]; 11.9 µM in test [6]; 9.3 µM in [7]; 8.34 µM in test [8]. Also, the GI50 in test [9] is 10 µM. The TGI in test [1] worked out at 24.7 µM; in test [3], 43.7 µM; in test [5], 28.5 µM; in test [6], 25.4 µM; in test [7], 17.1 µM; in test [8], 16.4 µM. Besides, the TGI in [9] is 21.1 µM.
For `Cc1cc(N(CCC#N)CCC#N)ccc1/C=C1N=C(/C=C\c2ccccc2)OC\1=O`, the TGI in test [1], in [2], in test [4], in test [5], in test [6] and in [7] was > 100 µM each time. Besides, the TGI in test [8] and in [9] was > 100 µM each time.
Consider `O=C(Nc1c(O)[nH]c(=S)[nH]c1=O)c1ccccc1F`, for which the TGI in [1], in [2], in [4], in [5], in test [6] and in test [7] was > 100 µM throughout. Further, the TGI in test [8] and in test [9] was > 100 µM in each case.
